Data: patent US10563263B2, “Genetic polymorphisms associated with statin response and cardiovascular diseases, methods of detection and uses thereof” (CELERA CORPORATION, priority 2010, dated 2020)

Test system: CHD (death from CHD, nonfatal MI, or revascularization)
Assay: WOSCOPS: SNP by pravastatin treatment interaction, logistic regression (synergy index), CHD endpoint
Type: in vivo, human
Conditions: for OR (synergy index): WOSCOPS
Description: CARE was a secondary prevention trial and WOSCOPS was a primary prevention trial.
The CHD endpoint was defined in the analyses herein of CARE as a composite endpoint of fatal CHD, definite non-fatal MI, or revascularization, and was defined in the analyses herein of WOSCOPS as a composite endpoint of death from CHD, nonfatal MI, or revascularization. In both the CARE and WOSCOPS analyses herein, the CVD endpoint was defined as a composite endpoint of CHD or stroke. […] Revascularization, which can include percutaneous transluminal coronary angioplasty (PTCA), stent placement, and coronary artery bypass graft (CABG), are medical interventions that indicate the presence of CHD.
Cohort and case-only study designs were used to identify SNPs associated with response to statin treatment.
For each SNP, a logistic regression model having treatment status as the dependent variable and SNP as the independent predictor variable was performed, with terms for age, sex and race included in the model as covariates. The anti-log of the regression coefficient corresponding to the SNP is an estimate of the synergy index (SI) (Davis et al., “Imputing gene-treatment interactions when the genotype distribution is unknown using case-only and putative placebo analyses-a new method for the Genetics of Hypertension Associated Treatment (GenHAT) study”, Statistics in Medicine 23: (2004), pages 2413-2427). The SI is a ratio of odds ratios: for example in the CARE and WOSCOPS studies, the SI represents the factor by which the odds-ratio of statin treatment, compared with placebo, among major homozygous individuals is multiplied by in order to obtain the odds-ratio of treatment vs. placebo among heterozygous individuals; and multiplied by a second time to obtain the odds-ratio of treatment vs. placebo in minor homozygous individuals. The case-only study design results in a valid estimate of the SI under the assumption that genotype and treatment are independent in the population. In a randomized clinical trial, genotype and treatment are independent by design. The p-value for the regression coefficient corresponding to the SNP results from a test of the null hypothesis that the regression coefficient is equal to zero (SI is equal to one) and thus small p-values indicate the SI is unlikely equal to one and that the effect of treatment likely differs by genotype. […]

CC[C@H](C)C(=O)O[C@H]1C[C@H](O)C=C2C=C[C@H](C)[C@H](CC[C@@H](O)C[C@@H](O)CC(=O)O)[C@H]21 [Pravastatin, pravastatin]
WOSCOPS OR (rs4726711, source CaseOnly, model add, endpoint CHD): 0.62 | OR (synergy index) (rs4736802 allele G, DOM model, Imputed): 1.614 | OR (synergy index) (rs4760785 allele A, ADD model, Imputed): 0.7714 | OR (synergy index) (rs4760785 allele A, DOM model, Imputed): 0.5986 | OR (synergy index) (rs4760894 allele T, ADD model, Imputed): 0.7714 | OR (synergy index) (rs4760894 allele T, DOM model, Imputed): 0.5986 | OR (synergy index) (rs4760895 allele A, ADD model, Imputed): 0.7714 | OR (synergy index) (rs4760895 allele A, DOM model, Imputed): 0.5986 | OR (synergy index) (rs4764738 allele A, ADD model, Imputed): 1.555 | OR (synergy index) (rs4764974 allele T, ADD model, Imputed): 1.512 | OR (synergy index) (rs4798366 allele G, REC model, Imputed): 2.304 | WOSCOPS OR (rs4830819, source CaseOnly, model add, endpoint CHD): 0.66 | OR (synergy index) (rs4836502 allele T, DOM model, Imputed): 0.6887 | OR (synergy index) (rs4836507 allele C, DOM model, Imputed): 0.6884 | OR (synergy index) (rs4836744 allele A, ADD model, Imputed): 0.7704 | OR (synergy index) (rs4836744 allele A, DOM model, Imputed): 0.6637 | WOSCOPS OR (rs4836745, Source caseonly): 0.65 | OR (synergy index) (rs4848944 allele C, REC model, Genotyped): 0.464 | OR (synergy index) (rs4851529 allele A, DOM model, Imputed): 0.5663 | OR (synergy index) (rs4851531 allele T, DOM model, Imputed): 0.5588 | WOSCOPS OR (rs4870109, Source caseonly): 1.47 | OR (synergy index) (rs4878214 allele A, ADD model, Imputed): 0.7413 | OR (synergy index) (rs4880803 allele A, ADD model, Imputed): 0.7588 | OR (synergy index) (rs4896568 allele T, DOM model, Imputed): 0.5426 | WOSCOPS OR (rs4924215, source CaseOnly, model dom, endpoint CHD): 1.46 | OR (synergy index) (rs4938851 allele T, DOM model, Imputed): 1.301 | OR (synergy index) (rs4964416 allele C, DOM model, Imputed): 0.6799 | WOSCOPS OR (rs5750116, source cohort, model dom, endpoint CHD): 1.45 | OR (synergy index) (rs5756669 allele C, DOM model, Imputed): 1.541 | OR (synergy index) (rs6033138 allele C, ADD model, Imputed): 1.407 | OR (synergy index) (rs6033138 allele C, REC model, Imputed): 1.414 | OR (synergy index) (rs6040619 allele C, ADD model, Imputed): 1.488 | OR (synergy index) (rs6040619 allele C, REC model, Imputed): 1.688 | OR (synergy index) (rs6040625 allele T, ADD model, Imputed): 1.479 | OR (synergy index) (rs6040625 allele T, REC model, Imputed): 1.634 | OR (synergy index) (rs6040630 allele A, ADD model, Imputed): 1.42 | OR (synergy index) (rs6040630 allele A, REC model, Imputed): 1.462 | OR (synergy index) (rs6040633 allele A, ADD model, Imputed): 1.407 | WOSCOPS OR (rs6080603, source CaseOnly, model dom, endpoint CHD): 0.68 | WOSCOPS OR (rs6474228, Source caseonly): 1.83 | WOSCOPS OR (rs6491586, source CaseOnly, model dom, endpoint CHD): 1.78 | WOSCOPS OR (rs6505669, source CaseOnly, model dom, endpoint CHD): 1.37 | WOSCOPS OR (rs6585412, Source caseonly): 1.44 | WOSCOPS OR (rs6998016, Source caseonly): 9.63 | WOSCOPS OR (rs7018577, Source caseonly): 1.94 | WOSCOPS OR (rs7078016, Source caseonly): 1.44 | WOSCOPS OR (rs7193741, source cohort, model rec, endpoint CHD): 1.87 | WOSCOPS OR (rs7305949, Source caseonly): 1.74 | WOSCOPS OR (rs7332076, Source caseonly): 2.18 | WOSCOPS OR (rs7449527, Source caseonly): 1.71 | WOSCOPS OR (rs7521242, source CaseOnly, model add, endpoint CHD): 0.74 | WOSCOPS OR (rs7625204, source cohort, model add, endpoint CHD): 1.38 | WOSCOPS OR (rs7629632, source CaseOnly, model dom, endpoint CHD): 1.72 | WOSCOPS OR (rs7705993, source CaseOnly, model add, endpoint CHD): 1.44 | WOSCOPS OR (rs7742508, source cohort, model dom, endpoint CHD): 1.93 | WOSCOPS OR (rs7839562, Source caseonly): 1.63 | WOSCOPS OR (rs7916629, Source caseonly): 1.66 | WOSCOPS OR (rs9446187, source cohort, model dom, endpoint CHD): 2.05 | WOSCOPS OR (rs9859901, source CaseOnly, model add, endpoint CHD): 0.41 | WOSCOPS OR (rs10120126, source CaseOnly, model dom, endpoint CHD): 0.48 | WOSCOPS OR (rs10155047, source cohort, model add, endpoint CHD): 0.50 | WOSCOPS OR (rs10189905, source cohort, model add, endpoint CHD): 0.56 | WOSCOPS OR (rs10305439, source CaseOnly, model dom, endpoint CHD): 0.63 | WOSCOPS OR (rs10429616, source cohort, model rec, endpoint CHD): 1.54 | WOSCOPS OR (rs10497883, Source caseonly): 0.67 | WOSCOPS OR (rs10500736, source cohort, model dom, endpoint CHD): 0.52 | WOSCOPS OR (rs10774580, Source caseonly): 0.56 | WOSCOPS OR (rs10814422, source CaseOnly, model dom, endpoint CHD): 0.46 | WOSCOPS OR (rs10935907, source CaseOnly, model dom, endpoint CHD): 1.49 | WOSCOPS OR (rs10945874, Source caseonly): 1.24 | WOSCOPS OR (rs10973013, source CaseOnly, model dom, endpoint CHD): 0.48 | WOSCOPS OR (rs11138314, Source cohort): 0.59 | WOSCOPS OR (rs11148285, Source caseonly): 2.30 | WOSCOPS OR (rs11585647, Source caseonly): 0.67 | WOSCOPS OR (rs11721179, Source caseonly): 0.60 | WOSCOPS OR (rs12556591, source CaseOnly, model add, endpoint CHD): 0.66 | WOSCOPS OR (rs13126170, Source caseonly): 0.78 | WOSCOPS OR (rs13129010, Source caseonly): 1.90 | WOSCOPS OR (rs13137776, source CaseOnly, model add, endpoint CHD): 0.62 | WOSCOPS OR (rs13279522, source cohort, model add, endpoint CHD): 0.63 | WOSCOPS OR (rs13318232, source CaseOnly, model dom, endpoint CHD): 0.40 | WOSCOPS OR (rs13431868, source CaseOnly, model dom, endpoint CHD): 1.42 | WOSCOPS OR (rs16885715, Source caseonly): 1.58 | WOSCOPS OR (rs17002013, Source caseonly): 1.66 | WOSCOPS OR (rs17076974, source cohort, model add, endpoint CHD): 1.32 | WOSCOPS OR (rs17138705, source CaseOnly, model add, endpoint CHD): 0.70 | WOSCOPS OR (rs17688430, Source caseonly): 0.71 | WOSCOPS OR (rs17706237, source CaseOnly, model dom, endpoint CHD): 1.52
